Experimental data reported in patent US20240000806A1, “METHODS AND MATERIALS FOR INHIBITING CB1 ACTIVITY” (University of Pittsburgh - Of the Commonwealth System of …, priority 2020, published 2024).

Each molecule was assayed against CB1 (CNR1) (Homo sapiens, UniProt P21554) (assay: cAMP CNR1 Hunter cell line antagonist assay (CB1 assay)). Conditions: antagonist mode, cAMP CNR1 Hunter cells, EC80 agonist; read-out: CB1 assay, Efficacy (IC50).
Format: cell-based
Experimental: cAMP CNR1 Hunter cell line (Eurofins DiscoveryX) were expanded from freezer stocks and seeded in a total volume of 20 μL into white walled, 384-well microplates and incubated at 37° C. for the appropriate time prior to testing. For antagonist determination, cell media was aspirated from cells and replaced with 10 μL 1:1 HBSS/Hepes:cAMP XS+Ab reagent. 5 μL of 4× compound was added to the cells and incubated at 37° C. for 30 minutes. 5 μL of 4× EC80 agonist was added to cells and incubated at 37° C. for 30 minutes. After appropriate compound incubation, assay signal was generated through incubation with 20 μL cAMP XS+ED/CL lysis cocktail for one hour followed by incubation with 20 μL cAMP XS+EA reagent for three hours at room temperature. Microplates were read following signal generation with a PerkinElmer Envision™ instrument for chemiluminescent signal detection. Compound activity (IC50) was analyzed using CBIS data analysis suite (ChemInnovation, CA).

CB1 (CNR1), sequence (P21554 whole entry): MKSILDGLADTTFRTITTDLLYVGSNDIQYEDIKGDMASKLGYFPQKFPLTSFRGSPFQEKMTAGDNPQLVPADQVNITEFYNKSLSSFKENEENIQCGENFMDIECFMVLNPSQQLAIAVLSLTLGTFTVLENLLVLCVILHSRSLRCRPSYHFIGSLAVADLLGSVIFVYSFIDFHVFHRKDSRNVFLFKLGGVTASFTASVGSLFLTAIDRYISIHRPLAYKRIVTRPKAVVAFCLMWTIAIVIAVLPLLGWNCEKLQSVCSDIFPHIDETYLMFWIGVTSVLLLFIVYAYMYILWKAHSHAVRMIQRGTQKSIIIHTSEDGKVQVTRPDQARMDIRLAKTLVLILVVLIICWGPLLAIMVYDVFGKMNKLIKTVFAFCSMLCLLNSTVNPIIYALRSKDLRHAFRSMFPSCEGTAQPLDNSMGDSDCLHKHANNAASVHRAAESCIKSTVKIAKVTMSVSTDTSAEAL

| Structure (SMILES) | IC50 [µM] |
| --- | --- |
| CC1C(=O)Nc2ccc(S(=O)(=O)N3CCCC3)cc2N1C(=O)N1CCOCC1 (stereo not shown) [BC19297] | ≥ 25 |
| CC(C)NC(=O)N1c2cc(S(=O)(=O)N3CCCC3)ccc2NC(=O)C1C (stereo not shown) [BC19298] | ≥ 25 |
| COCCNC(=O)N1c2cc(S(=O)(=O)N3CCCC3)ccc2NC(=O)C1C (stereo not shown) [BC19299] | 1 to 25 |
| NS(=O)(=O)c1ccc2c(c1)N1CCCC1C(=O)N2 (stereo not shown) [BC19300] | ≥ 25 |
| CC1Oc2cc(S(=O)(=O)Nc3ccc(OC(F)(F)F)cc3)c(Cl)cc2NC1=O (stereo not shown) [BC19354] | ≥ 25 |
| CCOc1ccc(NS(=O)(=O)c2cc(Cl)cc3c2OC(C)C(=O)N3)cc1 (stereo not shown) [BC19355] | 1 to 25 |
| CC1Oc2cc(S(=O)(=O)NCc3ccc(F)cc3F)c(Br)cc2NC1=O (stereo not shown) [BC19356] | ≥ 25 |
| CC1Oc2cc(S(=O)(=O)NCc3ccc(OC(F)(F)F)cc3)c(Br)cc2NC1=O (stereo not shown) [BC19357] | 1 to 25 |
| CC1Oc2cc(S(=O)(=O)NCc3ccc(C(F)(F)F)cc3)c(Br)cc2NC1=O (stereo not shown) [BC19358] | 1 to 25 |
| CC1Oc2cc(S(=O)(=O)NCCc3ccc(OC(F)(F)F)cc3)c(Br)cc2NC1=O (stereo not shown) [BC19359] | 1 to 25 |
| CC1Oc2cc(S(=O)(=O)NC3CCC(O)CC3)c(Br)cc2NC1=O (stereo not shown) [BC19360] | ≥ 25 |
| CC1Oc2cc(S(=O)(=O)NC3CCC(C(C)(C)C)CC3)c(Br)cc2NC1=O (stereo not shown) [BC19361] | 1 to 25 |
| CC1Oc2c(cc(Br)cc2S(=O)(=O)NCc2ccc(F)cc2F)NC1=O (stereo not shown) [BC19362] | ≥ 25 |
| CC1Oc2c(cc(Br)cc2S(=O)(=O)NCc2ccc(OC(F)(F)F)cc2)NC1=O (stereo not shown) [BC19363] | 1 to 25 |
| CC1Oc2c(cc(Br)cc2S(=O)(=O)NCCc2ccc(OC(F)(F)F)cc2)NC1=O (stereo not shown) [BC19364] | 1 to 25 |
| CC1Oc2c(cc(Br)cc2S(=O)(=O)NCc2ccc(C(F)(F)F)cc2)NC1=O (stereo not shown) [BC19365] | 1 to 25 |
| CC1Oc2c(cc(Br)cc2S(=O)(=O)NC2CCC(O)CC2)NC1=O (stereo not shown) [BC19366] | ≥ 25 |
| CC1Oc2c(cc(Br)cc2S(=O)(=O)NC2CCC(C(C)(C)C)CC2)NC1=O (stereo not shown) [BC19367] | ≥ 25 |
| CCC1Oc2cc(S(=O)(=O)NCc3ccc(F)cc3F)c(Br)cc2NC1=O (stereo not shown) [BC19368] | ≥ 25 |
| CCC1Oc2cc(S(=O)(=O)NCc3ccc(OC(F)(F)F)cc3)c(Br)cc2NC1=O (stereo not shown) [BC19369] | ≥ 25 |
| CCC1Oc2cc(S(=O)(=O)NCc3ccc(C(F)(F)F)cc3)c(Br)cc2NC1=O (stereo not shown) [BC19370] | ≥ 25 |
| CCC1Oc2cc(S(=O)(=O)Nc3ccc(C(F)(F)F)cc3Cl)c(Br)cc2NC1=O (stereo not shown) [BC19371] | ≥ 25 |
| CCC1Oc2cc(S(=O)(=O)NC3CCC(O)CC3)c(Br)cc2NC1=O (stereo not shown) [BC19372] | ≥ 25 |
| CCC1Oc2cc(S(=O)(=O)NCCc3ccc(OC(F)(F)F)cc3)c(Br)cc2NC1=O (stereo not shown) [BC19373] | ≥ 25 |
| CCC1Oc2c(cc(Br)cc2S(=O)(=O)NCc2ccc(F)cc2F)NC1=O (stereo not shown) [BC19374] | ≥ 25 |

| Structure (SMILES) | IC50 [µM] |
| --- | --- |
| CCC1Oc2c(cc(Br)cc2S(=O)(=O)NCc2ccc(OC(F)(F)F)cc2)NC1=O (stereo not shown) [BC19375] | 1 to 25 |
| CCC1Oc2c(cc(Br)cc2S(=O)(=O)NCCc2ccc(OC(F)(F)F)cc2)NC1=O (stereo not shown) [BC19376] | 1 to 25 |
| CCC1Oc2c(cc(Br)cc2S(=O)(=O)NCc2ccc(C(F)(F)F)cc2)NC1=O (stereo not shown) [BC19377] | ≥ 25 |
| CCC1Oc2c(cc(Br)cc2S(=O)(=O)NC2CCC(O)CC2)NC1=O (stereo not shown) [BC19378] | 1 to 25 |
| CCC1Oc2c(cc(Br)cc2S(=O)(=O)NC2CCC(C(C)(C)C)CC2)NC1=O (stereo not shown) [BC19379] | 1 to 25 |
| CC(C)(C)C1CCC(NS(=O)(=O)c2cc(Br)cc3c2OCC(=O)N3)CC1 (stereo not shown) [BC19380] | ≥ 25 |
| O=C1COc2c(cc(Br)cc2S(=O)(=O)NC2CCC(O)CC2)N1 (stereo not shown) [BC19381] | ≥ 25 |
| O=C1COc2c(cc(Br)cc2S(=O)(=O)NCc2ccc(C(F)(F)F)cc2)N1 [BC19382] | 1 to 25 |
| O=C1COc2c(cc(Br)cc2S(=O)(=O)NCCc2ccc(OC(F)(F)F)cc2)N1 [BC19383] | ≥ 25 |
| O=C1COc2c(cc(Br)cc2S(=O)(=O)Nc2ccc(C(F)(F)F)cc2Cl)N1 [BC19384] | ≥ 25 |
| O=C1COc2c(cc(Br)cc2S(=O)(=O)NCc2ccc(OC(F)(F)F)cc2)N1 [BC19385] | ≥ 25 |
| O=C1COc2c(cc(Br)cc2S(=O)(=O)NCc2ccc(F)cc2F)N1 [BC19386] | ≥ 25 |
| O=C1COc2cc(S(=O)(=O)NCCc3ccc(OC(F)(F)F)cc3)c(Br)cc2N1 [BC19387] | ≥ 25 |
| CC(C)(C)C1CCC(NS(=O)(=O)c2cc3c(cc2Br)NC(=O)CO3)CC1 (stereo not shown) [BC19388] | ≥ 25 |
| O=C1COc2cc(S(=O)(=O)NC3CCC(O)CC3)c(Br)cc2N1 (stereo not shown) [BC19389] | ≥ 25 |
| O=C1COc2cc(S(=O)(=O)Nc3ccc(C(F)(F)F)cc3Cl)c(Br)cc2N1 [BC19390] | ≥ 25 |
| O=C1COc2cc(S(=O)(=O)NCc3ccc(C(F)(F)F)cc3)c(Br)cc2N1 [BC19391] | ≥ 25 |
| O=C1COc2cc(S(=O)(=O)NCc3ccc(OC(F)(F)F)cc3)c(Br)cc2N1 [BC19392] | ≥ 25 |
| O=C1COc2cc(S(=O)(=O)NCc3ccc(F)cc3F)c(Br)cc2N1 [BC19393] | ≥ 25 |
| CC1Oc2c(cc(Cl)cc2S(=O)(=O)Nc2ccc(OC(F)(F)F)cc2)NC1=O (stereo not shown) [BC19394] | ≥ 25 |
| CCS(=O)(=O)c1cc2c(c(S(=O)(=O)Nc3ccc(F)c(F)c3)c1)OCC(=O)N2 [BC19421] | ≥ 25 |
| CS(=O)(=O)c1cc2c(c(S(=O)(=O)Nc3ccc(OC(F)(F)F)cc3)c1)OCC(=O)N2 [BC19422] | ≥ 25 |
| Cc1ccc(NS(=O)(=O)c2cc(S(C)(=O)=O)cc3c2OCC(=O)N3)cc1F [BC19423] | ≥ 25 |
| CC(C)c1ccc(NS(=O)(=O)c2cc(S(C)(=O)=O)cc3c2OCC(=O)N3)cc1 [BC19424] | ≥ 25 |
| CS(=O)(=O)c1cc2c(c(S(=O)(=O)Nc3ccc(F)cc3F)c1)OCC(=O)N2 [BC19425] | ≥ 25 |

| Structure (SMILES) | IC50 [µM] |
| --- | --- |
| CS(=O)(=O)c1cc2c(c(S(=O)(=O)Nc3cccc(F)c3)c1)OCC(=O)N2 [BC19426] | ≥ 25 |
| CS(=O)(=O)c1cc2c(c(S(=O)(=O)Nc3cccc(Cl)c3)c1)OCC(=O)N2 [BC19427] | ≥ 25 |
| CS(=O)(=O)c1cc2c(c(S(=O)(=O)Nc3ccc(F)cc3Cl)c1)OCC(=O)N2 [BC19428] | ≥ 25 |
| COc1ccc(NS(=O)(=O)c2cc(S(C)(=O)=O)cc3c2OCC(=O)N3)cc1Cl [BC19429] | ≥ 25 |
| CS(=O)(=O)c1cc2c(c(S(=O)(=O)Nc3ccc(F)cc3)c1)OCC(=O)N2 [BC19430] | ≥ 25 |
| CS(=O)(=O)c1cc2c(c(S(=O)(=O)Nc3ccc(C#N)cc3)c1)OCC(=O)N2 [BC19431] | ≥ 25 |
| Cc1ccc(NS(=O)(=O)c2c(C)c(Cl)cc3c2OCC(=O)N3)cc1 [BC19432] | ≥ 25 |
| Cc1ccc(NS(=O)(=O)c2c(C)c(Cl)cc3c2OCC(=O)N3)cc1Cl [BC19433] | ≥ 25 |
| Cc1c(Cl)cc2c(c1S(=O)(=O)Nc1ccc(Cl)cc1)OCC(=O)N2 [BC19434] | ≥ 25 |
| CCS(=O)(=O)c1cc2c(c(S(=O)(=O)Nc3ccc(OC(F)(F)F)cc3)c1)OCC(=O)N2 [BC19435] | ≥ 25 |
| CCS(=O)(=O)c1cc2c(c(S(=O)(=O)Nc3ccc(C)c(F)c3)c1)OCC(=O)N2 [BC19436] | ≥ 25 |
| CCS(=O)(=O)c1cc2c(c(S(=O)(=O)Nc3ccccc3)c1)OCC(=O)N2 [BC19437] | ≥ 25 |
| CCS(=O)(=O)c1cc2c(c(S(=O)(=O)Nc3ccc(OC)cc3)c1)OCC(=O)N2 [BC19438] | ≥ 25 |
| CCc1cccc(NS(=O)(=O)c2cc(S(=O)(=O)CC)cc3c2OCC(=O)N3)c1 [BC19439] | ≥ 25 |
| CCS(=O)(=O)c1cc2c(c(S(=O)(=O)Nc3cccc(F)c3)c1)OCC(=O)N2 [BC19440] | ≥ 25 |
| CCS(=O)(=O)c1cc2c(c(S(=O)(=O)Nc3cccc(Cl)c3)c1)OCC(=O)N2 [BC19441] | ≥ 25 |
| CCS(=O)(=O)c1cc2c(c(S(=O)(=O)Nc3ccc(F)cc3Cl)c1)OCC(=O)N2 [BC19442] | ≥ 25 |
| CCS(=O)(=O)c1cc2c(c(S(=O)(=O)Nc3ccc(F)cc3)c1)OCC(=O)N2 [BC19443] | ≥ 25 |
| CS(=O)(=O)c1cc2c(c(S(=O)(=O)Nc3ccc(F)c(F)c3)c1)OCC(=O)N2 [BC19481] | ≥ 25 |
| CS(=O)(=O)c1cc2c(c(S(=O)(=O)Nc3ccccc3)c1)OCC(=O)N2 [BC19482] | ≥ 25 |
| CS(=O)(=O)c1cc2c(c(S(=O)(=O)Nc3ccc(Cl)cc3)c1)OCC(=O)N2 [BC19483] | ≥ 25 |
| CCc1ccc(NS(=O)(=O)c2cc(S(C)(=O)=O)cc3c2OCC(=O)N3)cc1 [BC19484] | ≥ 25 |
| COc1ccc(NS(=O)(=O)c2cc(S(C)(=O)=O)cc3c2OCC(=O)N3)cc1 [BC19485] | ≥ 25 |
